Data reported in patent US7592336B2, “Hepatitis C virus inhibitors” (Bristol-Myers Squibb Company, priority 2005, dated 2009).

Target: T1, HCV NS3/4A protease complex, J4L6S strain (Hepatitis C virus genotype 1b, UniProt O92972, C1454S/C1711G)
T1 construct: DNA encoding the recombinant HCV NS3/4A protease complex (amino acids 1027 to 1711) for these strains; inferred from pET21b vector and Ni-NTA purification; made in house; host or cells: Escherichia coli BL21 (DE3), pET21b
Test: FRET peptide assay to monitor HCV NS3/4A proteolytic activity (J4L6S strain)
Type: biochemical, HCV genotype 1b
Conditions: read-out: IC50 against NS3/4A J4L6S strain
Description: HCV NS3 protease complexes, derived from the BMS strain, H77 strain or J4L6S strain, were generated, as described below. These purified recombinant proteins were generated for use in a homogeneous assay (see below) to provide an indication of how effective compounds of the present disclosure would be in inhibiting HCV NS3 proteolytic activity.
The H77 and J4L6S strains were used for production of recombinant NS3/4A protease complexes. DNA encoding the recombinant HCV NS3/4A protease complex (amino acids 1027 to 1711) for these strains were manipulated as described by P. Gallinari et al. (see Gallinari P, Paolini C, Brennan D, Nardi C, Steinkuhler C, De Francesco R. Biochemistry. 38(17):5620-32, (1999)). Briefly, a three-lysine solubilizing tail was added at the 3′-end of the NS4A coding region. The cysteine in the P1 position of the NS4A-NS4B cleavage site (amino acid 1711) was changed to a glycine to avoid the proteolytic cleavage of the lysine tag. Furthermore, a cysteine to serine mutation was introduced by PCR at amino acid position 1454 to prevent the autolytic cleavage in the NS3 helicase domain. […]

T1 sequence (O92972 1027-1711 C1454S/C1711G, one chain of several): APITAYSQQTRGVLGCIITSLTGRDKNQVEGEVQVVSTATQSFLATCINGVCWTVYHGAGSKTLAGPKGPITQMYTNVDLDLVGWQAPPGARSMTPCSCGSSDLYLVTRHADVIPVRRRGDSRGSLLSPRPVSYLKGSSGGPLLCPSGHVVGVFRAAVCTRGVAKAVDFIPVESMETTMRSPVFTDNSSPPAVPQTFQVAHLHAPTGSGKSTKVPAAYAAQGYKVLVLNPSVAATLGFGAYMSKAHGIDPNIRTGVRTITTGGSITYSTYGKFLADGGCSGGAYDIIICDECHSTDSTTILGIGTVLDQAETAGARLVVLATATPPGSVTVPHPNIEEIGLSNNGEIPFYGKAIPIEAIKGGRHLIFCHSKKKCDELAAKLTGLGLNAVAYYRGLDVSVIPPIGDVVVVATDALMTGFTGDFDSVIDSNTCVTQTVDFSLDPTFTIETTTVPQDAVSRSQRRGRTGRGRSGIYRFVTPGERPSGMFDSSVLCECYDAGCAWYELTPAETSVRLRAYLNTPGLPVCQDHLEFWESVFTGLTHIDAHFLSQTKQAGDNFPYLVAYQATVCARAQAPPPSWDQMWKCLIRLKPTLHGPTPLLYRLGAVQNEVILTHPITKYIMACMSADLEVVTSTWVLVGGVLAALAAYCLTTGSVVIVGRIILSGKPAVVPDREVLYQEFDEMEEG

C=C[C@@H]1C[C@]1(NC(=O)[C@@H]1C[C@@](O)(c2ccc(-c3ccccc3)cc2)CN1C(=O)[C@@H](NC(=O)OC(C)(C)C)C(C)(C)C)C(=O)NS(=O)(=O)C1CC1 [Compound 3]
IC50: 0.9 nM
